Laboratory results as given in US10238658B2, “1-pyrazolyl-3-(4-((2-anilinopyrimidin-4-yl) oxy) napththalen-1-yl) ureas as p38 MAP kinase inhibitors” (Respivert Limited, priority 2011, dated 2019).

Key:
Format in all cases: cell-based
HRV16 = HRV16 induced CPE in MRC5 cells; settings: Human rhinovirus sp., HRV16, MRC5, at 0.04 μg/mL; read-out: HRV CPE (MRC5) % inhibition
Experimental: The supernatants were aspirated, and then fresh media added followed by incubation for 4 days. Where appropriate, cells were pre-incubated with compound or DMSO for 2 hr, and the compounds and DMSO added again after washout of the virus.
The percentage inhibition for each well was calculated. The IC50 value was calculated from the concentration-response curve generated by the serial dilutions of the test compounds.

IL-8 [1] = assay: Rhinovirus-induced IL-8 release in BEAS2B cells; settings: Homo sapiens, BEAS-2B, at 0.04 μg/mL; read-out: HRV IL-8 (BEAS2B) % inhibition
Experimental: Human rhinovirus RV16 was obtained from the American Type Culture Collection (Manassas, Va.). Viral stocks were generated by infecting Hela cells with HRV until 80% of the cells were cytopathic.
BEAS2B cells were infected with HRV at an MOI of 5 and incubated for 2 hr at 33° C. with gentle shaking for to promote absorption. The cells were then washed with PBS, fresh media added and the cells were incubated for a further 72 hr. The supernatant was collected for assay of IL-8 concentrations using a Duoset ELISA development kit (R&D systems, Minneapolis, Minn.). […]

IL-8 [2] = assay: LPS-induced IL-8 release in d-U937 cells; settings: Homo sapiens, dU937, dU937 cells
Experimental: (§1) U937 cells, a human monocytic cell line, were differentiated into macrophage-type cells by incubation with PMA (100 ng/mL) for 48 to 72 hr. Cells were pre-incubated with final concentrations of test compound for 2 hr and were then stimulated with LPS (0.1 μg/mL; from E. Coli: O111:B4, Sigma) for 4 hr. The supernatant was collected for determination of TNFα and IL-8 concentrations by sandwich ELISA (Duo-set, R&D systems). […] The relative 50% effective concentration (REC50) was determined from the resultant concentration-response curve. The inhibition of IL-8 production was calculated at each concentration of test compound by comparison with vehicle control.

TNFα [3] = assay: LPS-induced TNFα release in d-U937 cells; settings: Homo sapiens, dU937, dU937 cells; relative to 10 μg/mL BIRB796; read-out: LPS Induced Release TNFα REC50 (dU937)
Experimental: as §1

TNFα [4] = assay: LPS-induced TNFα release in THP-1 cells; settings: Homo sapiens, THP-1, THP1 cells
Experimental: THP-1 cells, a human monocytic cell line, were stimulated with 3 μg/mL of LPS (from E. Coli; 0111:B4, Sigma) for 4 hr and the supernatant collected for determination of the TNFα concentration by sandwich ELISA (Duo-set, R&D systems). The inhibition of TNFα production was calculated at each concentration by comparison with vehicle control.

PBMC = assay: Cell mitosis assay; settings: Homo sapiens
Experimental: Peripheral blood mononucleocytes (PBMCs) from healthy subjects were separated from whole blood (Quintiles, London, UK) using a density gradient (Histopaque®-1077, Sigma-Aldrich, Poole, UK). The PBMCs (3 million cells per sample) were subsequently treated with 2% PHA (Sigma-Aldrich, Poole, UK) for 48 hr, followed by a 20 hr exposure to varying concentrations of test compounds. At 2 hr before collection, PBMCs were treated with demecolcine (0.1 μg/mL; Invitrogen, Paisley, UK,) to arrest cells in metaphase. To observe mitotic cells, PBMCs were permeabilised and fixed by adding Intraprep (50 μL; Beckman Coulter, France), and stained with anti-phospho-histone 3 ([…]; #9701; Cell Signalling, Danvers, Mass.) and propidium iodide (1 mg/mL; Sigma-Aldrich, Poole, UK,) as previously described (Muehlbauer P. A. and Schuler M. J., Mutation Research, 2003, 537:117-130). Fluorescence was observed using an ATTUNE flow cytometer (Invitrogen, Paisley, UK), gating for lymphocytes.

Row | Compound | inhibition at 0.04 µg/mL (HRV16) [%] | inhibition at 0.04 µg/mL (IL-8 [1]) [%] | IC50 (IL-8 [2]) [nM] | EC50 (TNFα [3]) [nM] | IC50 (TNFα [4]) [nM] | inhibition at 1 µg/mL (PBMC; read-out: Mitosis Assay % inhibition in PBMC Cells at concn 1 μg/mL) [%] | inhibition at 5 µg/mL (PBMC; read-out: Mitosis Assay % inhibition in PBMC Cells at concn 5 μg/mL) [%]
1 | CC(C)(C)c1cc(NC(=O)Nc2ccc(Oc3ccnc(Nc4ccccc4)n3)c3ccccc23)n(-c2ccc(O)cc2)n1 [Example 3, 1-(3-(tert-butyl)-1-(4-hydroxyphenyl)-1H-pyrazol-5-yl)-3-(4-((2-(phenylamino)pyrimidin-4-yl)oxy)naphthalen-1-yl)urea] | 100 | 100 | 1.8 | 1.7 | 1.2 |  | 
2 | Cc1ccc(-n2nc(C(C)(C)C)cc2NC(=O)Nc2ccc(Oc3ccnc(Nc4ccccc4F)n3)c3ccccc23)cc1 [Example 4, 1-(3-(tert-butyl)-1-(p-tolyl)-1H-pyrazol-5-yl)-3-(4-((2-((2-fluorophenyl)amino)pyrimidin-4-yl)oxy)naphthalen-1-yl)urea] | 44 | 100 | 2.3 | 3.1 | 4.6 |  | 
3 | Cc1ccc(-n2nc(C(C)(C)C)cc2NC(=O)Nc2ccc(Oc3ccnc(Nc4ccccc4Cl)n3)c3ccccc23)cc1 [Example 6, 1-(3-(tert-butyl)-1-(p-tolyl)-1H-pyrazol-5-yl)-3-(4-((2-((2-chlorophenyl)amino)pyrimidin-4-yl)oxy)naphthalen-1-yl)urea] |  |  | 15 | 7 | 225 |  | 
4 | Cc1ccc(-n2nc(C(C)(C)C)cc2NC(=O)Nc2ccc(Oc3ccnc(Nc4cc(C)ccc4C)n3)c3ccccc23)cc1 [Example 10, 1-(3-(tert-butyl)-1-(p-tolyl)-1H-pyrazol-5-yl)-3-(4-((2-((2,5-dimethylphenyl)amino)pyrimidin-4-yl)oxy)naphthalen-1-yl)urea] | 100 | 100 | 15 | 15 | 45 |  | 
5 | Cc1ccc(Nc2nccc(Oc3ccc(NC(=O)Nc4cc(C(C)(C)C)nn4-c4ccc(C)cc4)c4ccccc34)n2)cc1 [Example 11, 1-(3-(tert-butyl)-1-(p-tolyl)-1H-pyrazol-5-yl)-3-(4-((2-(p-tolylamino)pyrimidin-4-yl)oxy)naphthalen-1-yl)urea] | 100 | 100 | > 1680 | 35 | 21 |  | 
6 | Cc1ccc(-n2nc(C(C)(C)C)cc2NC(=O)Nc2ccc(Oc3ccnc(Nc4cccc(C)c4)n3)c3ccccc23)cc1 [Example 12, 1-(3-(tert-butyl)-1-(p-tolyl)-1H-pyrazol-5-yl)-3-(4-((2-(m-tolylamino)pyrimidin-4-yl)oxy)naphthalen-1-yl)urea] | 100 | 100 | 2.4 | 2 | 30 |  | 
7 | Cc1ccc(-n2nc(C(C)(C)C)cc2NC(=O)Nc2ccc(Oc3ccnc(Nc4cccc(Cl)c4)n3)c3ccccc23)cc1 [Example 13, 1-(3-(tert-butyl)-1-(p-tolyl)-1H-pyrazol-5-yl)-3-(4-((2-((3-chlorophenyl)amino)pyrimidin-4-yl)oxy)naphthalen-1-yl)urea] | 100 | 100 | > 1620 | > 1620 | 1600 |  | 
8 | COc1cccc(Nc2nccc(Oc3ccc(NC(=O)Nc4cc(C(C)(C)C)nn4-c4ccc(C)cc4)c4ccccc34)n2)c1 [Example 14, 1-(3-(tert-butyl)-1-(p-tolyl)-1H-pyrazol-5-yl)-3-(4-((2-((3-methoxyphenyl)amino)pyrimidin-4-yl)oxy)naphthalen-1-yl)urea] | 100 | 100 | 1.6 | 2 | 2.7 |  | 
9 | Cc1ccc(-n2nc(C(C)(C)C)cc2NC(=O)Nc2ccc(Oc3ccnc(Nc4cccc(F)c4)n3)c3ccccc23)cc1 [Example 15, 1-(3-(tert-butyl)-1-(p-tolyl)-1H-pyrazol-5-yl)-3-(4-((2-((3-fluorophenyl)amino)pyrimidin-4-yl)oxy)naphthalen-1-yl)urea] | 100 | 100 | 2.3 | 2.2 | 3 |  | 
10 | COc1ccc(Nc2nccc(Oc3ccc(NC(=O)Nc4cc(C(C)(C)C)nn4-c4ccc(C)cc4)c4ccccc34)n2)cc1 [Example 17, 1-(3-(tert-butyl)-1-(p-tolyl)-1H-pyrazol-5-yl)-3-(4-((2-((4-methoxyphenyl)amino)pyrimidin-4-yl)oxy)naphthalen-1-yl)urea] | ≤ 0 | 100 | 2.1 | 2 | 4.3 |  | 
11 | Cc1ccc(-n2nc(C(C)(C)C)cc2NC(=O)Nc2ccc(Oc3ccnc(Nc4ccccc4C(C)C)n3)c3ccccc23)cc1 [Example 20, 1-(3-(tert-butyl)-1-(p-tolyl)-1H-pyrazol-5-yl)-3-(4-((2-((2-isopropylphenyl)amino)pyrimidin-4-yl)oxy)naphthalen-1-yl)urea] | ≤ 0 | 100 | 23 | 18 | 121 |  | 
12 | COc1cc(Nc2nccc(Oc3ccc(NC(=O)Nc4cc(C(C)(C)C)nn4-c4ccc(C)cc4)c4ccccc34)n2)ccc1O [Example 25, 1-(3-(tert-butyl)-1-(p-tolyl)-1H-pyrazol-5-yl)-3-(4-((2-((4-hydroxy-3-methoxyphenyl)amino)pyrimidin-4-yl)oxy)naphthalen-1-yl)urea] |  | 100 | 1.5 | 0.84 | 0.4 | 29.1 | 63.5
13 | COc1ccc(Nc2nccc(Oc3ccc(NC(=O)Nc4cc(C(C)(C)C)nn4-c4ccc(C)cc4)c4ccccc34)n2)cc1Cl [Example 28, 1-(3-(tert-butyl)-1-(p-tolyl)-1H-pyrazol-5-yl)-3-(4-((2-((3-chloro-4-methoxyphenyl)amino)pyrimidin-4-yl)oxy)naphthalen-1-yl)urea] | 54 | 100 | 18 | 14 | 0.4 |  | 
14 | Cc1ccc(-n2nc(C(C)(C)C)cc2NC(=O)Nc2ccc(Oc3ccnc(Nc4ccc(O)cc4F)n3)c3ccccc23)cc1 [Example 30, 1-(3-(tert-butyl)-1-(p-tolyl)-1H-pyrazol-5-yl)-3-(4-((2-((2-fluoro-4-hydroxyphenyl)amino)pyrimidin-4-yl)oxy)naphthalen-1-yl)urea] | ≤ 0 | 100 | 3 | 1 | 1.6 |  | 
15 | Cc1ccc(-n2nc(C(C)(C)C)cc2NC(=O)Nc2ccc(Oc3ccnc(Nc4ccc(O)cc4Cl)n3)c3ccccc23)cc1 [Example 31, 1-(3-(tert-butyl)-1-(p-tolyl)-1H-pyrazol-5-yl)-3-(4-((2-((2-chloro-4-hydroxyphenyl)amino)pyrimidin-4-yl)oxy)naphthalen-1-yl)urea] | ≤ 0 | 100 | 32 | 16 | 6.1 |  | 
16 | COCC(=O)Nc1cc(Oc2ccc(NC(=O)Nc3cc(C(C)(C)C)nn3-c3ccc(C)cc3)c3ccccc23)ccn1 [Reference Compound, N-(4-(4-(3-(3-tert-butyl-1-p-tolyl-1H-pyrazol-5-yl)ureido)naphthalen-1-yloxy)pyridin-2-yl)-2-methoxyacetamide, reference compound] |  |  |  | 0.13 |  |  | 
